Source: patent US20220177484A1, “MACROCYCLES WITH ANTIOXIDANT AND NEUROPROTECTIVE ACTIVITIES” (INSTITUTO BIOMAR, S.A, priority 2019, published 2022)

Tests used:
Assay type in all cases: cell-based
[1] = tested on: rat cortical primary neurons; experiment: H2O2 formation in cortical primary neurons treated with L-BSO and rotenone (Amplex Red); conditions: compound 1 μg/ml together with L-BSO and rotenone for 6 h, washed, recorded 2 h (FIG. 2)
Procedure: The data are presented as the mean values±[…] of the mean (SEM) from n=6 (i.e., 6 independent wells measured independently).
After this period, cells were again washed and determined the rate of H2O2 production during the next 2 h.

[2] = tested on: cortical primary neurons (from C57BL6/J mice); experiment: H2O2 production in neurons after excitotoxic NMDA stimulus (Amplex Red); conditions: 100 μM NMDA 10 min, then compound 0.1, 1, 5 μM (FIG. 5)
Procedure: (§1) For NMDA receptors activation, neurons at 8 days in vitro were incubated with 100 μM NMDA for 10 minutes. Neurons were then washed and further incubated for 4 hours in culture medium with DMSO only (DMSO empty bar), DMSO and NMDA (DMSO filled bar) and with increasing quantities of GKK1032C, GKK1032, Pyrrocidine A, Pyrrocidine B, CL0661, CL0667 and CL0670. Concentrations of 0.1 μM, 1 μM, 5 μM. *: p-value <0.05 vs. DMSO+NMDA (student's test).
(§2) Experiments were performed in […] cortical primary neurons, obtained as was previously described (Herrero-Mendez A. et al., Nat. Cell. Biol. 11:747-752, 2009). After 7 or 8 days in B27-MAO culture, neurons (from C57BL6/J mice) were incubated in the presence of N-methyl-D-aspartate (NMDA, a H2O2 production promoter; 100 μM) for 10 minutes, followed by a PBS washing step and submitted to a 24-hour B27 incubation step in the absence (DMSO) or presence of increasing amounts of GKK1032C, GKK1032, Pyrrocidine B, Pyrrocidine A, CL0661, CL0665, CL0667 and CL0670 (0.1 μM, 1 μM and 5 μM). B27-MAO stands for Neurobasal medium, supplemented with B27 supplement in the absence of antioxidants (minus antioxidants, MAO).
The release of H2O2 was measured using the fluorescent method Amplex© Red hydrogen peroxide/peroxidase assay kit (Invitrogen, catalog number A22188) using a multiwell fluorescence reader (Varioskan, Thermo Scientific).
(§3) The data are presented as the mean values±standard deviation of the mean from n=3.

[3] = tested on: cortical primary neurons (from C57BL6/J mice); experiment: Caspase-3 activity (neuronal apoptosis) after excitotoxic NMDA stimulus; conditions: 100 μM NMDA 10 min, then 24 h with compound 0.1, 1, 5 μM (FIG. 6)
Procedure: as §1, with “24” for “4”, “Pyrrocidine” for “Pyrrocidine A, Pyrrocidine”, “CL0661, CL0665,” for “CL0661,”, “pvalue” for “p-value”
as §2
Neuronal apoptosis was determined by measuring caspase-3 activity (Veas-Perez de Tudela et al. Sci Rep 5:18180; doi:10.1038/srep18180 (2015).
as §3

C=C[C@@H]1C=C(C)[C@H]2[C@@H]3[C@H](Oc4ccc(cc4)C[C@@]4(O)C=C(C(=O)N4)C(=O)[C@@H]13)[C@@H]1[C@@H](C)C[C@@H](C)C[C@]12C [Pyrrocidine A, reference compound]
rate of H2O2 formation [1]: significantly impaired
H2O2 production in neuron cells after NMDA [2]: successful in preventing H2O2 from being produced

C=CC1(C)C=C(C)C2C3C(Oc4ccc(cc4)CC45OC4(C(=O)NC5=O)C(=O)C31)C1C(C)CC(C)CC21C (stereo not drawn) [CL0661]
H2O2 production in neuron cells after NMDA [2]: successful in preventing H2O2 from being produced
neuronal apoptosis (caspase-3 activity) after NMDA [3]: effective in protecting neuron cells against apoptosis

C=CC1(C)C=C(C)C2C3C(Oc4ccc(cc4)CC4C(=O)N(CC#N)C(=O)C4C(=O)C31)C1C(C)CC(C)CC21C (stereo not drawn) [CL0667]
H2O2 production in neuron cells after NMDA [2]: successful in preventing H2O2 from being produced
neuronal apoptosis (caspase-3 activity) after NMDA [3]: effective in protecting neuron cells against apoptosis

C=C[C@@H]1C=C(C)[C@H]2[C@@H]3[C@H](Oc4ccc(cc4)C[C@@]4(O)C[C@H](C(=O)N4)C(=O)[C@@H]13)[C@@H]1[C@@H](C)C[C@@H](C)C[C@]12C [Pyrrocidine B, reference compound]
H2O2 production in neuron cells after NMDA [2]: successful in preventing H2O2 from being produced
neuronal apoptosis (caspase-3 activity) after NMDA [3]: effective in protecting neuron cells against apoptosis

C=C[C@@]1(C)C=C(C)C2C3[C@H](Oc4ccc(cc4)CC4C(=O)NC(=O)[C@H]4C(=O)[C@H]31)C1[C@@H](C)C[C@@H](C)C[C@@]21C (stereo partly drawn) [GKK1032, reference compound]
rate of H2O2 formation [1]: significantly impaired
H2O2 production in neuron cells after NMDA [2]: successful in preventing H2O2 from being produced
neuronal apoptosis (caspase-3 activity) after NMDA [3]: effective in protecting neuron cells against apoptosis

CC1=CC2(C)C(C)O/C3=C4\C(=O)NC(=O)C4Cc4ccc(cc4)OC4C(C32)C1C1(C)CC(C)CC(C)C41 (stereo not drawn) [CL0665]
neuronal apoptosis (caspase-3 activity) after NMDA [3]: effective in protecting neuron cells against apoptosis
